Data on 34 compounds can be found in patent publication US9108957B2 (MITSUBISHI TANABE PHARMA CORPORATION, priority 2009, dated 2015).

Structures can show the parent of a compound that is named as a salt.

Chain of human recombinant TPK1 (P49841 whole entry): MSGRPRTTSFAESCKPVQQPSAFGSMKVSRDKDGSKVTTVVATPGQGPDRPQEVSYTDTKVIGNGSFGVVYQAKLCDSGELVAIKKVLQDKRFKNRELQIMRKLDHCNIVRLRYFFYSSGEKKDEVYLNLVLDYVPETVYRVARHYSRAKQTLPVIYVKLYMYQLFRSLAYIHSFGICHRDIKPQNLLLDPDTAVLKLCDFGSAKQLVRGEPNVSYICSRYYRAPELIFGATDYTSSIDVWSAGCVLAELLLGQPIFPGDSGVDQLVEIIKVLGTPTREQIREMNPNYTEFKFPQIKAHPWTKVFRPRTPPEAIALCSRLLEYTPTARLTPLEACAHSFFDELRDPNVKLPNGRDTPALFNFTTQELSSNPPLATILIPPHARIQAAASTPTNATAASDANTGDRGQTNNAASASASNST

This assay addresses human recombinant TPK1 (Homo sapiens, UniProt P49841). The assay can be described thus: Inhibitory activity against P-GS1 phosphorylation by TPK1 (Kinase Glo luminescence). Type of assay: biochemical. The conditions noted are these: 7.5 μM P-GS1, 10 μM ATP, 25° C. for 16 hours, Kinase Glo Reagent luminescent signal. How it is done: Inhibitory Activity of the Medicament of the Present Invention Against P-GS1 Phosphorylation by Bovine Cerebral TPK1
A mixture containing 100 mM HEPES-sodium hydroxide (pH 7.2), 1 mM magnesium acetate, 1 mM EGTA, 1 mM dithiothreitol (DTT), 0.02% Tween 20, 7.5 μM P-GS1, 10 μM ATP, human recombinant TPK1 and a compound shown in Table (a final mixture contained 1% DMSO deriving from a solution of a test compound prepared in the presence of 10% DMSO) was used as a reaction system. The phosphorylation was started by adding ATP, and the reaction was conducted at 25° C. for 16 hours. Then equal volume of Kinase Glo Reagent (Promega) was added to the mixture and luminescent signal from the mixture was measured. IC50 for each compound was calculated by setting the data of mixture without enzyme as 0% activity and that without compound as 100% activity.
As a reminder, the IC50 is the concentration that gives 50% inhibition. For `Cc1noc(-c2ccc([C@H]3CN(c4nc(-c5ccncc5F)cc(=O)n4C)CCCO3)cc2)n1` [Compound A019, (S)-2-[2-[4-(3-methyl-1,2,4-oxadiazol-5-yl)-phenyl]-1,4-oxazepan-4-yl]-6-(3-fluoropyridin-4-yl)-3-methylpyrimidin-4(3H)-one], the IC50 was found to be 11.1 nM.
For the compound `Cn1c(N2CCCO[C@@H](c3ccc(C(N)=O)cc3)C2)nc(-c2ccncn2)cc1=O` [Compound A018], the IC50 was found to be 11 nM.
Then `Cc1noc(-c2cccc([C@H]3CN(c4nc(-c5ccncn5)cc(=O)n4C)CCCO3)c2)n1` [Compound A045, (S)-2-[2-[3-(3-methyl-1,2,4-oxadiazol-5-yl)phenyl]-1,4-oxazepan-4-yl]-3-methyl-6-(pyrimidin-4-yl)pyrimidin-4(3H)-one], with 57.1 nM.
In the case of `Cc1nc(-c2ccc(C3CN(c4nc(-c5ccncn5)cc(=O)n4C)CCCO3)cc2)no1` (stereo in doubt) [Compound A034, (R)-2-[2-[4-(5-methyl-1,2,4-oxadiazol-3-yl)-phenyl]-1,4-oxazepan-4-yl]-3-methyl-6-(pyrimidin-4-yl)pyrimidin-4(3H)-one], the IC50 was 23.5 nM.
For `Cn1c(N2CCCOC(c3ccc(F)cc3)C2)nc(-c2ccncc2)cc1=O` (stereo not shown) [Compound A035, 2-[2-(4-fluorophenyl)-1,4-oxazepan-4-yl]-3-methyl-6-(pyridin-4-yl)pyrimidin-4(3H)-one hydrochloride], the IC50 came to 27 nM.
For the compound `Cn1c(N2CCCO[C@H](c3ccc(C(N)=O)cc3)C2)nc(-c2ccncn2)cc1=O` [Compound A060, (R)-2-[2-(4-aminocarbonylphenyl)-1,4-oxazepan-4-yl]-3-methyl-6-(pyrimidin-4-yl)pyrimidin-4(3H)-one], the IC50 was determined as 252 nM.
With `Cn1c(N2CCCN(c3ccc(F)cc3)CC2)nc(-c2ccncc2F)cc1=O` [Compound A003, 2-[4-(4-fluorophenyl)-1,4-diazepan-1-yl]-6-(3-fluoropyridin-4-yl)-3-methylpyrimidin-4(3H)-one], the IC50 came out at 18.4 nM.
For `Cn1c(N2CCCO[C@H](c3ccc(C#N)cc3)C2)nc(-c2ccncc2F)cc1=O` [Compound A063, (R)-2-[2-(4-cyanophenyl)-1,4-oxazepan-4-yl]-6-(3-fluoropyridin-4-yl)-3-methylpyrimidin-4(3H)-one], the IC50 was found to be 826 nM.
Turning to `Cn1c(N2CCOCCC2c2ccccc2)nc(-c2ccncn2)cc1=O` (stereo not shown) [Compound A071, 3-methyl-2-(5-phenyl-1,4-oxazepan-4-yl)-6-(pyrimidin-4-yl)pyrimidin-4(3H)-one], the IC50 was 41 nM.
The same measure for `Cn1c(N2CCOCC(c3ccccc3)C2)nc(-c2ccncn2)cc1=O` (single isomer, unassigned; (-)) [Compound A075, (−)-2-(6-phenyl-1,4-oxazepan-4-yl)-3-methyl-6-(pyrimidin-4-yl)pyrimidin-4(3H)-one]: 1.4 nM; for `Cn1c(N2CCCO[C@@H](c3ccc(C#N)cc3)C2)nc(-c2ccncn2)cc1=O` [Compound A028, (S)-2-[2-(4-cyanophenyl)-1,4-oxazepan-4-yl]-3-methyl-6-(pyrimidin-4-yl)pyrimidin-4(3H)-one]: 17.6 nM.
The same measure for `Cc1nc(-c2ccc([C@H]3CN(c4nc(-c5ccncc5F)cc(=O)n4C)CCCO3)cc2)no1` [Compound A027, (S)-2-[2-[4-(5-methyl-1,2,4-oxadiazol-3-yl)-phenyl]-1,4-oxazepan-4-yl]-6-(3-fluoropyridin-4-yl)-3-methylpyrimidin-4(3H)-one]: 15.4 nM; for `Cc1nc(-c2ccc(C3COCCN(c4nc(-c5ccncc5F)cc(=O)n4C)C3)cc2)no1` (stereo not shown) [Compound A083, 2-[6-[4-(5-methyl-1,2,4-oxadiazol-3-yl)-phenyl]-1,4-oxazepan-4-yl]-6-(3 fluoropyridin-4-yl)-3-methylpyrimidin-4(3H)-one]: 14 nM.
In the case of `Cn1c(N2CCCO[C@H](c3cccc(C#N)c3)C2)nc(-c2ccncc2F)cc1=O` [Compound A047], the IC50 is 67.5 nM.
Turning to `Cn1c(N2CCOC(c3ccc(F)cc3)CC2)nc(-c2ccncn2)cc1=O` (stereo not shown) [Compound A098, 2-[7-(4-fluorophenyl)-1,4-oxazepan-4-yl]-3-methyl-6-(pyrimidin-4-yl)pyrimidin-4(3H)-one], the IC50 is 13.8 nM.
Then `Cc1nc(-c2ccc(C3CCN(c4nc(-c5ccncn5)cc(=O)n4C)CCO3)cc2)no1` (single isomer, unassigned; (-)) [Compound A112, (−)-2-[7-[4-(5-methyl-1,2,4-oxadiazol-3-yl)-phenyl]-1,4-oxazepan-4-yl]-3-methyl-6-(pyrimidin-4-yl)pyrimidin-4(3H)-one], with 30 nM.
Consider `Cn1c(N2CCCO[C@@H](c3cccc(Br)c3)C2)nc(-c2ccncn2)cc1=O` [Compound A079, (S)-2-[2-(3-bromophenyl)-1,4-oxazepan-4-yl]-3-methyl-6-(pyrimidin-4-yl)pyrimidin-4(3H)-one], for which the IC50 was found to be 7.3 nM.
`Cn1c(N2CCCO[C@H](c3cccc(C(N)=O)c3)C2)nc(-c2ccncn2)cc1=O` [Compound A049, (R)-2-[2-(3-aminocarbonylphenyl)-1,4-oxazepan-4-yl]-3-methyl-6-(pyrimidin-4-yl)pyrimidin-4(3H)-one]: the IC50 was determined as 70.6 nM.
Consider `Cn1c(N2CCOC(c3ccccc3F)CC2)nc(-c2ccncc2)cc1=O` (stereo not shown) [Compound A110, 2-(7-(2-fluorophenyl)-1,4-oxazepan-4-yl)-3-methyl-6-(pyridin-4-yl)pyrimidin-4(3H)-one], for which the IC50 is 29.2 nM.
In the case of `Cn1c(N2CCCN(c3ccc(F)cc3)CC2)nc(-c2ccncn2)cc1=O` [Compound A004, 2-[4-(4-fluorophenyl)-1,4-diazepan-1-yl]-3-methyl-6-(pyrimidin-4-yl)pyrimidin-4(3H)-one], the IC50 is 35.1 nM.
As for `Cn1c(N2CCCO[C@@H](c3cccc(Br)c3)C2)nc(-c2ccncc2F)cc1=O` [Compound A008, (S)-2-[2-(3-bromophenyl)-1,4-oxazepan-4-yl]-6-(3-fluoropyridin-4-yl)-3-methylpyrimidin-4(3H)-one], the IC50 worked out at 4.5 nM.
The same measure for `Cn1c(N2CCOCC(c3ccc(-c4ncon4)cc3)C2)nc(-c2ccncc2F)cc1=O` (stereo not shown) [Compound A078, 2-[6-[4-(1,2,4-oxadiazol-3-yl)-phenyl]-1,4-oxazepan-4-yl]-6-(3-fluoropyridin-4-yl)-3-methylpyrimidin-4(3H)-one]: 7.1 nM.
With `Cn1c(N2CCCO[C@H](c3ccc(Br)cc3)C2)nc(-c2ccncn2)cc1=O` [Compound A058, (R)-2-(2-(4-bromophenyl)-1,4-oxazepan-4-yl)-3-methyl-6-(pyrimidin-4-yl)pyrimidin-4(3H)-one], the IC50 came out at 221 nM.
With `COc1ccc(C2CCN(c3nc(-c4ccncn4)cc(=O)n3C)CCO2)cc1` (stereo not shown) [Compound A117, 2-(7-(4-methoxyphenyl)-1,4-oxazepan-4-yl)-3-methyl-6-(pyrimidin-4-yl)pyrimidin-4(3H)-one], the IC50 worked out at 54.7 nM.
Then `Cn1c(N2CCOC(c3cccc(F)c3)CC2)nc(-c2ccncn2)cc1=O` (stereo not shown) [Compound A106, 2-[7-(3-fluorophenyl)-1,4-oxazepan-4-yl]-3-methyl-6-(pyrimidin-4-yl)pyrimidin-4(3H)-one], with 20.5 nM; and `Cc1noc(-c2ccc(C3COCCN(c4nc(-c5ccncn5)cc(=O)n4C)C3)cc2)n1` (stereo not shown) [Compound A081, 2-[6-[4-(3-methyl-1,2,4-oxadiazol-5-yl)-phenyl]-1,4-oxazepan-4-yl]-3-methyl-6-(pyrimidin-4-yl)pyrimidin-4(3H)-one], with 12.9 nM.
`COc1ccccc1C1CCN(c2nc(-c3ccncc3)cc(=O)n2C)CCO1` (stereo not shown) [Compound A115, 2-(7-(2-methoxyphenyl)-1,4-oxazepan-4-yl)-3-methyl-6-(pyridin-4-yl)pyrimidin-4(3H)-one]: the IC50 was 47.6 nM.
For `Cn1c(N2CCCO[C@H](c3ccc(C(N)=O)cc3)C2)nc(-c2ccncc2)cc1=O` [Compound A062, (R)-2-[2-(4-aminocarbonylphenyl)-1,4-oxazepan-4-yl]-3-methyl-6-(pyridin-4-yl)pyrimidin-4(3H)-one], the IC50 was 809 nM.
The same measure for `Cn1c(N2CCCOCC2)nc(-c2ccncn2)cc1=O` [Compound A002, 2-(1,4-oxazepan-4-yl)-3-methyl-6-(pyrimidin-4-yl)pyrimidin-4(3H)-one]: 232 nM; for `Cn1c(N2CCCO[C@@H](c3ccc(C#N)cc3)C2)nc(-c2ccncc2)cc1=O` [Compound A037, (S)-2-(2-(4-cyanophenyl)-1,4-oxazepan-4-yl)-3-methyl-6-(pyridin-4-yl)pyrimidin-4(3H)-one]: 30.8 nM; for `Cn1c(N2CCCOC(c3ccccc3)C2)nc(-c2ccncc2)cc1=O` (stereo not shown) [Compound A040, 2-(2-phenyl-1,4-oxazepan-4-yl)-3-methyl-6-(pyridin-4-yl)pyrimidin-4(3H)-one]: 32.7 nM.
On to `Cc1nc(-c2cccc([C@H]3CN(c4nc(-c5ccncn5)cc(=O)n4C)CCCO3)c2)no1` [Compound A030, (S)-2-[2-[3-(5-methyl-1,2,4-oxadiazol-3-yl)-phenyl]-1,4-oxazepan-4-yl]-3-methyl-6-(pyrimidin-4-yl)pyrimidin-4(3H)-one], for which the IC50 is 19.8 nM.
On to `Cn1c(N2CCCO[C@H](c3ccc(Br)cc3)C2)nc(-c2ccncc2F)cc1=O` [Compound A044, (R)-2-[2-(4-bromophenyl)-1,4-oxazepan-4-yl]-6-(3-fluoropyridin-4-yl)-3-methylpyrimidin-4(3H)-one], for which the IC50 was found to be 52.4 nM.
As to `Cc1nc(-c2ccc(C3COCCN(c4nc(-c5ccncn5)cc(=O)n4C)C3)cc2)no1` (stereo not shown) [Compound A086, 2-[6-[4-(5-methyl-1,2,4-oxadiazol-3-yl)-phenyl]-1,4-oxazepan-4-yl]-3-methyl-6-(pyrimidin-4-yl)pyrimidin-4(3H)-one], the IC50 is 35.8 nM.
